According to US12263226B1, “Neratinib-cyclodextrin composition and method for preparing same” (Hangzhou Jitai Pharmaceutical Technology Co., Ltd, priority 2024, dated 2025):
Where two headings read alike, the source gives them in different places.

Experiments:
[1] = Protocol: Preparation of FaSSIF solution (fasted state simulated intestinal fluid, pH 6.5): 0.42 g of NaOH, 3.44 g of NaH2PO4, and 6.19 g of NaCl were added into a beaker before 900 mL of purified water was added. The pH was adjusted and the volume was brought to 1 L with purified water. 2.24 g of FaSSIF powder was added into the 1-L buffer.
Solubility measurement: 400 μL of the FaSSIF solution was added into a scintillation flask, and a small amount of the neratinib-cyclodextrin composition powder was gradually added at room temperature with magnetic stirring until a precipitate was observed. The addition amount of the powder was recorded. The solubility of neratinib maleate was calculated from the loading amount of the powder. Dissolution measurement of the neratinib maleate substance (API): 400 μL of the FaSSIF solution was added into a scintillation flask. An excessive amount of neratinib maleate substance was added.

[2] = cited from earlier work

neratinib maleate
solubility of neratinib maleate ([1]; FaSSIF, excess substance, stirred at room temperature 48 h, supernatant by HPLC): 7.4 µg/mL
solubility of neratinib maleate ([1]; neutral conditions (pH 6.5)): 7.4 µg/mL

CCOc1cc2ncc(C#N)c(Nc3ccc(OCc4ccccn4)c(Cl)c3)c2cc1NC(=O)/C=C/CN(C)C [neratinib, (E)-N-[4-[3-chloro-4-(pyridin-2-ylmethoxy)anilino]-3-cyano-7-ethoxyquinolin-6-yl]-4-(dimethylamino) but-2-enamide]
bioavailability ([2]; fasting conditions in humans): < 17%
decrease of area under curve (AUC) without the high-fat meal ([2]; humans, approved tablet): 2.2 times
